Read-outs that look alike come from different tables or passages of the source.
How the values were obtained:
Format in all cases: cell-based
[1] = tested on: BSY-1 breast cancer cells; test: antitumor activity, sulforhodamine B cell growth assay, BSY-1
Description: (§1) The THIQ compound containing a macrocyclic structure of the present invention was administered to various cancer cell lines, and the antitumor activity (Go value) was observed. Specifically, verification was performed according to the literature (Yamori, T.; Matsunaga, A.; Sato, S.; Yamazaki, K.; Komi, A.; Ishizu, K. et al. Cancer Res. 1999, 59, 4042) by the following procedure.
(§2) Cells were plated at an appropriate density in a 96-well plate in RPMI 1640 together with 5% fetal bovine serum, and adhered overnight. The cells were exposed to a drug for 48 hours. Then, according to the sulforhodamine B assay described by Skehan et al (Skehan P., Storeng R., Scudiero D., Monks A., McMahon J., Vistica D., Warren J. T., Bokesch H., Kenney S., Boyd M. R. J Natl. Cancer Inst, 1990, 82, 1107-1112), the cell growth rate was measured. The absorbance of the control well (C) and the test well (T) was measured at 525 nm. In addition, the time at which the drug was added was set as time 0, and the absorbance for the test well (T0) was measured. Using these measured values, the cell growth inhibitory effect (% growth=PG) was calculated by the following formula at each concentration of the drug.
(§3) (T<T0): PG=100×[(T−T0)/T]
(§4) The PG values determined above for each cell line were plotted against the concentration (logarithm) on a semi-logarithmic graph, and summarized for each visceral cancer. Concentrations at which the dose-response curve of each cell line crossed the horizontal line of PG=50%, 0%, or −50% were calculated. These concentrations were defined as Log GI50, Log TGI, and Log LC50. Actually, using two data points of the drug concentration before and after crossing each horizontal line, the drug concentration (logarithmic value) at the intersection of the straight line connecting the two points and the horizontal line for each PG was calculated.

[2] = tested on: MCF-7 breast cancer cells; test: antitumor activity, sulforhodamine B cell growth assay, MCF-7
Description: as §1, §2, §3, §4

[3] = tested on: SF-539 central nervous system cancer cells; test: antitumor activity, sulforhodamine B cell growth assay, SF-539
Description: as §1, §2, §3, §4

[4] = tested on: SNB-75 central nervous system cancer cells; test: antitumor activity, sulforhodamine B cell growth assay, SNB-75
Description: as §1, §2, §3, §4

[5] = tested on: KM-12 colorectal cancer cells; test: antitumor activity, sulforhodamine B cell growth assay, KM-12
Description: as §1, §2, §3, §4

[6] = tested on: HCT-116 colorectal cancer cells; test: antitumor activity, sulforhodamine B cell growth assay, HCT-116
Description: as §1, §2, §3, §4

[7] = tested on: NCI-H226 lung cancer cells; test: antitumor activity, sulforhodamine B cell growth assay, NCI-H226
Description: as §1, §2, §3, §4

A549 lung cancer cells = test: antitumor activity, sulforhodamine B cell growth assay, A549
Description: as §1, §2, §3, §4

DMS114 lung cancer cells = test: antitumor activity, sulforhodamine B cell growth assay, DMS114
Description: as §1, §2, §3, §4

OVCAR-3 cancer cells = test: antitumor activity, sulforhodamine B cell growth assay, OVCAR-3
Description: as §1, §2, §3, §4

OVCAR-8 cancer cells = test: antitumor activity, sulforhodamine B cell growth assay, OVCAR-8
Description: as §1, §2, §3, §4

[8] = tested on: St-4 gastric cancer cells; test: antitumor activity, sulforhodamine B cell growth assay, St-4
Description: as §1, §2, §3, §4

[9] = tested on: MKN1 gastric cancer cells; test: antitumor activity, sulforhodamine B cell growth assay, MKN1
Description: as §1, §2, §3, §4

[10] = tested on: MKN-B gastric cancer cells; test: antitumor activity, sulforhodamine B cell growth assay, MKN-B
Description: as §1, §2, §3, §4

[11] = tested on: MKN-A gastric cancer cells; test: antitumor activity, sulforhodamine B cell growth assay, MKN-A
Description: as §1, §2, §3, §4

[12] = tested on: MKN45 gastric cancer cells; test: antitumor activity, sulforhodamine B cell growth assay, MKN45
Description: as §1, §2, §3, §4

[13] = tested on: MKN74 gastric cancer cells; test: antitumor activity, sulforhodamine B cell growth assay, MKN74
Description: as §1, §2, §3, §4

[14] = tested on: PC-3 prostate cancer cells; test: antitumor activity, sulforhodamine B cell growth assay, PC-3
Description: as §1, §2, §3, §4

[15] = BSY-1, drug exposure 48 hours, read-out: GI50 value: 50% growth inhibitory concentration
[16] = St-4 (SI-4 in Tables 2-11), drug exposure 48 hours, read-out: GI50 value: 50% growth inhibitory concentration
[17] = MKN-B, drug exposure 48 hours, read-out: GI50 value: 50% growth inhibitory concentration
[18] = MKN-A, drug exposure 48 hours, read-out: GI50 value: 50% growth inhibitory concentration
[19] = PC-3, drug exposure 48 hours, read-out: GI50 value: 50% growth inhibitory concentration

## COc1c(C)cc2c(c1O)C1C3Cc4c5c(C)c6c(c4C(CNC(=O)C(C)NC(=O)OCC4C=C(CO5)CC5C(=O)N(c7ccccc7)C(=O)C45)N3C(C#N)C(C2)N1C)OCO6 (stereo not drawn) [Compound 18]
[1]; [15]
  GI50: 19 nM
[2]; MCF-7, drug exposure 48 hours, read-out: GI50 value: 50% growth inhibitory concentration
  GI50: 22 nM
[3]; SF-539, drug exposure 48 hours, read-out: GI50 value: 50% growth inhibitory concentration
  GI50: 33 nM
[4]; SNB-75, drug exposure 48 hours, read-out: GI50 value: 50% growth inhibitory concentration
  GI50: 50 nM
[5]; KM-12, drug exposure 48 hours, read-out: GI50 value: 50% growth inhibitory concentration
  GI50: 100 nM
[6]; HCT-116, drug exposure 48 hours, read-out: GI50 value: 50% growth inhibitory concentration
  GI50: 74 nM
[7]; NCI-H226, drug exposure 48 hours, read-out: GI50 value: 50% growth inhibitory concentration
  GI50: 280 nM
A549 lung cancer cells; A549, drug exposure 48 hours, read-out: GI50 value: 50% growth inhibitory concentration
  GI50: 540 nM
DMS114 lung cancer cells; DMS114, drug exposure 48 hours, read-out: GI50 value: 50% growth inhibitory concentration
  GI50: 12 nM
OVCAR-3 cancer cells; OVCAR-3, drug exposure 48 hours, read-out: GI50 value: 50% growth inhibitory concentration
  GI50: 43 nM
OVCAR-8 cancer cells; OVCAR-8, drug exposure 48 hours, read-out: GI50 value: 50% growth inhibitory concentration
  GI50: 130 nM
[8]; [16]
  GI50: 300 nM
[9]; MKN1, drug exposure 48 hours, read-out: GI50 value: 50% growth inhibitory concentration
  GI50: 50 nM
[10]; [17]
  GI50: 160 nM
[11]; [18]
  GI50: 210 nM
[12]; MKN45, drug exposure 48 hours, read-out: GI50 value: 50% growth inhibitory concentration
  GI50: 78 nM
[13]; MKN74, drug exposure 48 hours, read-out: GI50 value: 50% growth inhibitory concentration
  GI50: 120 nM
[14]; [19]
  GI50: 170 nM

## COc1c(C)cc2c(c1O)[C@@H]1[C@@H]3Cc4c5c(C)c6c(c4C(CNC(=O)[C@H](C)NC(=O)OCC4C=C(CO5)Cn5c(=O)n(-c7ccccc7)c(=O)n54)N3[C@@H](C#N)[C@H](C2)N1C)OCO6 [Compound 16]
[1]; [15]
  GI50: 3.1 nM
[2]; Homo sapiens, MCF7, MCF-7, drug exposure 48 hours, read-out: GI50 value: 50% growth inhibitory concentration
  GI50: 4.4 nM
[3]; Homo sapiens, SF-539, drug exposure 48 hours, read-out: GI50 value: 50% growth inhibitory concentration
  GI50: 8.2 nM
[4]; Homo sapiens, SNB-75, drug exposure 48 hours, read-out: GI50 value: 50% growth inhibitory concentration
  GI50: 9.9 nM
[5]; Homo sapiens, KM12, KM-12, drug exposure 48 hours, read-out: GI50 value: 50% growth inhibitory concentration
  GI50: 14 nM
[6]; Homo sapiens, HCT-116, drug exposure 48 hours, read-out: GI50 value: 50% growth inhibitory concentration
  GI50: 9.3 nM
[7]; Homo sapiens, NCI-H226, drug exposure 48 hours, read-out: GI50 value: 50% growth inhibitory concentration
  GI50: 25 nM
A549 lung cancer cells; Homo sapiens, A549, drug exposure 48 hours, read-out: GI50 value: 50% growth inhibitory concentration
  GI50: 51 nM
DMS114 lung cancer cells; Homo sapiens, DMS-114, DMS114, drug exposure 48 hours, read-out: GI50 value: 50% growth inhibitory concentration
  GI50: 3.8 nM
OVCAR-3 cancer cells; Homo sapiens, OVCAR-3, drug exposure 48 hours, read-out: GI50 value: 50% growth inhibitory concentration
  GI50: 6.4 nM
OVCAR-8 cancer cells; Homo sapiens, OVCAR-8, drug exposure 48 hours, read-out: GI50 value: 50% growth inhibitory concentration
  GI50: 21 nM
[8]; [16]
  GI50: 37 nM
[9]; Homo sapiens, MKN-1, MKN1, drug exposure 48 hours, read-out: GI50 value: 50% growth inhibitory concentration
  GI50: 4.8 nM
[10]; [17]
  GI50: 30 nM
[11]; [18]
  GI50: 29 nM
[12]; Homo sapiens, MKN-45, MKN45, drug exposure 48 hours, read-out: GI50 value: 50% growth inhibitory concentration
  GI50: 7.1 nM
[13]; Homo sapiens, MKN-74, MKN74, drug exposure 48 hours, read-out: GI50 value: 50% growth inhibitory concentration
  GI50: 32 nM
[14]; [19]
  GI50: 26 nM

## C#CCN1C(=O)[C@H]2[C@@H]3C=C(COc4c(C)c5c(c6c4C[C@H]4[C@H]7c8c(cc(C)c(OC)c8O)C[C@@H]([C@H](C#N)N4C6CNC(=O)[C@H](C)NC(=O)OC3)N7C)OCO5)C[C@H]2C1=O [Compound 47]
[1]; BSY-1 breast cancer cells, read-out: antitumor activity GI50 value: 50% growth inhibitory concentration
  GI50: 150 nM
[2]; Homo sapiens, MCF7, MCF-7 breast cancer cells, read-out: antitumor activity GI50 value: 50% growth inhibitory concentration
  GI50: 63 nM
[3]; Homo sapiens, SF-539 central nervous system cancer cells, read-out: antitumor activity GI50 value: 50% growth inhibitory concentration
  GI50: 290 nM
[4]; Homo sapiens, SNB-75 central nervous system cancer cells, read-out: antitumor activity GI50 value: 50% growth inhibitory concentration
  GI50: 330 nM
[5]; Homo sapiens, KM12, KM-12 colorectal cancer cells, read-out: antitumor activity GI50 value: 50% growth inhibitory concentration
  GI50: 450 nM
[6]; Homo sapiens, HCT-116 colorectal cancer cells, read-out: antitumor activity GI50 value: 50% growth inhibitory concentration
  GI50: 450 nM
[7]; Homo sapiens, NCI-H226, NCl-H226 lung cancer cells, read-out: antitumor activity GI50 value: 50% growth inhibitory concentration
  GI50: 2300 nM
A549 lung cancer cells; Homo sapiens, A549 lung cancer cells, read-out: antitumor activity GI50 value: 50% growth inhibitory concentration
  GI50: 3900 nM
DMS114 lung cancer cells; Homo sapiens, DMS-114, DMS114 lung cancer cells, read-out: antitumor activity GI50 value: 50% growth inhibitory concentration
  GI50: 31 nM
OVCAR-3 cancer cells; Homo sapiens, OVCAR-3 cervical cancer cells, read-out: antitumor activity GI50 value: 50% growth inhibitory concentration
  GI50: 330 nM
OVCAR-8 cancer cells; Homo sapiens, OVCAR-8 cervical cancer cells, read-out: antitumor activity GI50 value: 50% growth inhibitory concentration
  GI50: 1100 nM
[8]; SI-4 gastric cancer cells, read-out: antitumor activity GI50 value: 50% growth inhibitory concentration
  GI50: 2200 nM
[9]; Homo sapiens, MKN-1, MKN1 gastric cancer cells, read-out: antitumor activity GI50 value: 50% growth inhibitory concentration
  GI50: 290 nM
[10]; MKN-B gastric cancer cells, read-out: antitumor activity GI50 value: 50% growth inhibitory concentration
  GI50: 730 nM
[11]; MKN-A gastric cancer cells, read-out: antitumor activity GI50 value: 50% growth inhibitory concentration
  GI50: 1400 nM
[12]; Homo sapiens, MKN-45, MKN45 gastric cancer cells, read-out: antitumor activity GI50 value: 50% growth inhibitory concentration
  GI50: 470 nM
[13]; Homo sapiens, MKN-74, MKN74 gastric cancer cells, read-out: antitumor activity GI50 value: 50% growth inhibitory concentration
  GI50: 1500 nM
[14]; PC-3 prostate cancer cells, read-out: antitumor activity GI50 value: 50% growth inhibitory concentration
  GI50: 1500 nM

Source: patent US20240197726A1, “NOVEL TETRAHYDROISOQUINOLINE ALKALOID COMPOUND CONTAINING MACROCYCLE” (THE UNIVERSITY OF TOKYO, priority 2021, published 2024)
